Reference: patent US20110212053A1, “PHOSPHATIDYLINOSITOL 3 KINASE INHIBITORS” (priority 2008, published 2011)

Experiments:
PIM-1 = PIM-1 (Homo sapiens, UniProt P11309); test: Radiometric HotSpot kinase assay, PIM-1; format: biochemical; settings: 1 μM compound, 10 μM ATP
Description: Kinase Profiling: The inhibitory activity of the PI3K inhibitor compounds of the invention against 250 protein kinases was determined via the radiometric HotSpot Kinase Profiling (Reaction Biology Corporation, Malvern, Pa.). Compounds were profiled at a final concentration of 1 μM compound against recombinant protein kinases in the presence of 10 μM ATP and data were expressed as percent inhibition. IC50 and/or percent inhibition at 1 μM compound values were determined for select compounds against a subset of kinases (MELK, MNK1, MNK2, mTOR, PIM-1. TRKC, and PDGFRα(D842V)).
Compounds of the invention were assayed against the select kinases using the KinaseGLO assay (MELK) or the radiometric assay (PIM, TRKC, PDGFRα(D842V), MNK1 and mTOR). IC50 values were determined using 8-10 point half-log dose dilutions and calculated via nonlinear regression analysis using Graphpad Prism data analysis software.

[1] = system: p-AKT(S473) in IGF-1-stimulated A549 cells; test: In-cell western blot (cytoblot) of AKT phosphorylation, IGF-1-stimulated A549; format: cell-based; settings: Homo sapiens, read-out: IC50 against the p-AKT(S473) phosphorylation site
Description: (§1) Compound Preparation: Cell-based assays: 1000× stocks of inhibitors were prepared in DMSO. A 10 mM master stock was prepared and all other stocks were generated by serial dilution of the master stock in DMSO. The final concentration of DMSO in cell-based assays was 0.1% (v/v).
(§2) In-cell western blot (cytoblot) mechanistic assay; Measurement of AKT phosphorylation: The in-cell western blot assay is a quantitative 96-well immunocytochemistry assay using fixed cells. Phosphorylated AKT is detected and quantified via either enhanced chemiluminescence (ECL) or near infra-red (LI-COR) methods. Log-phase cells (10,000 A549, RKO or 30,000 U-87 MG) were plated in collagen coated, 96 well plates (Nunc) in 200 μL of growth medium (10% FBS/DMEM) and allowed to attach overnight at 37° C. in 5% CO2 incubator. Black 96 well plates were used for ECL assays. White, clear bottomed 96 well plates were used for LI-COR assays. The following day the growth medium was removed. For experiments using U-87 MG cells and RKO cells, the growth medium was replaced with 200 μL of fresh growth medium containing inhibitors dissolved in DMSO. PI3K inhibitors were dosed using half-log dilutions to generate an eight-point dose-response curve from 0.0 μM-10 μM for EC50 determinations, and the final concentration of DMSO in the test wells was 0.1% (v/v). The inhibitor treated cells were then incubated for 1 hour at 37° C. […]
(§3) After the inhibitor incubation phase (with or without IGF-1 stimulation), the medium was aspirated, the cells washed once with Tris-Buffered Saline (TBS) and then fixed in the wells by addition of 200 μL of cold 3.7% (v/v) formaldehyde diluted in TBS to test wells and incubated for 15 minutes at 4° C. […] The wells were then was washed four times with ice-cold TBS-T. Phospho-AKT luminescent signal was detected after a 1 minute incubation of test wells with 100 μL of ECL reagent using a SpectraMax M5 luminometer. (ii) Near-infrared fluorescence detection (LI-COR): After removal of the methanol, wells were blocked with 200 μL of LI-COR blocking buffer for 1 hour at room temperature. […]

[2] = system: p-AKT(S473) in U-87 MG cells; test: In-cell western blot (cytoblot) of AKT phosphorylation, U-87 MG; format: cell-based; settings: Homo sapiens, read-out: IC50 against the p-AKT(S473) phosphorylation site
Description: as §1, §2, §3

U-87 MG cells = test: CellTiter-GLO cell proliferation assay, U-87 MG; format: cell-based; settings: Homo sapiens, preliminary experiments, no unit printed with the values (paragraph speaks of nM), read-out: mean concentration for 50% inhibition of U-87 MG cell proliferation
Description: as §1
CellTiter-GLO® Cell Proliferation Assay: CellTiter-GLO® (Promega) quantifies cell number as a measure of the ATP in a cell culture. 1,000-10,000 human tumor cells (of multiple histotypes) were plated in 100 μL of growth medium (10% (v/v) FBS in DMEM) in white, collagen coated 96-well plates (Biocoat) and allowed to adhere overnight at 37° C. in a 5% CO2 incubator. All test inhibitors were prepared in DMSO. For EC50 determinations, 1000× inhibitor stocks were prepared from a 10 mM master stock by serial dilution in DMSO and subsequently diluted in fresh growth medium to the desired inhibitor concentration. The growth medium was removed by aspiration and replaced with fresh medium containing inhibitors. […]
After 72 hours, the plates were removed from the incubator and equilibrated to room temperature for 30 minutes. […] Plates were incubated in the dark for 10 minutes at room temperature before reading luminescence on a SpectraMax M5 luminometer. Results are expressed as % inhibition relative to control cells (DMSO only). EC50 values were calculated via non-linear regression using GraphPad Prism data analysis software.

Chain of PIM-1 (P11309 whole entry): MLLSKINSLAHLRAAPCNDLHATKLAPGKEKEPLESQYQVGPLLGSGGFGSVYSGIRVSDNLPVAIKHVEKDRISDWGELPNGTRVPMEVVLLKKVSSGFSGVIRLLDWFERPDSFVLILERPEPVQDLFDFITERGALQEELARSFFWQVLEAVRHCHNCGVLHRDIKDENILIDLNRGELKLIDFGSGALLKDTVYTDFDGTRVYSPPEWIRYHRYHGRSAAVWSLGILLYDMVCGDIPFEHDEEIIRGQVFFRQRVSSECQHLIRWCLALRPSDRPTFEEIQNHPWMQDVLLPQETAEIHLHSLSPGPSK

inhibition at 1 µM (PIM-1) | IC50 [1] | IC50 [2] | IC50 (U-87 MG cells) | SMILES
60 to 85% | 210 nM | 81 nM | – | CC(C)(C#N)c1ccc(-c2n[nH]c3cnc4ccc(-c5ccc6ncccc6c5)cc4c23)cc1 [Compound 1110, 2-methyl-2-(4-(8-(quinolin-6-yl)-3H-pyrazolo[3,4-c]quinolin-1-yl)phenyl)propanenitrile]
– | 43 nM | 88 nM | 295 nM | CC(C)(C#N)c1ccc(-c2n[nH]c3cnc4ccc(-c5cnc6ccccc6c5)cc4c23)cc1 [Compound 1078, 2-methyl-2-(4-(8-(quinolin-3-yl)-3H-pyrazolo[3,4-c]quinolin-1-yl)phenyl)propanenitrile]
85 to 95% | 189 nM | 54 nM | 470 nM | CC(C)(C#N)c1ccc(-c2n[nH]c3cnc4ccc(-c5cccnc5)cc4c23)cc1 [Compound 1107, 2-methyl-2-(4-(8-(pyridin-3-yl)-3H-pyrazolo[3,4-c]quinolin-1-yl)phenyl)propanenitrile]
